Reference: ChEMBL document CHEMBL1201862, “PubChem BioAssay data set” (2004)
Calls of active or inactive are those of the source.

How the values were obtained:
Insulin-degrading enzyme [1] = biological target: T1, Insulin-degrading enzyme (Homo sapiens, UniProt P14735); test: activators of endogenous IDE in HEK cells, dose response, cell-based, fluorescence polarization (AID 588439); type: functional
T1 sequence (P14735 whole entry): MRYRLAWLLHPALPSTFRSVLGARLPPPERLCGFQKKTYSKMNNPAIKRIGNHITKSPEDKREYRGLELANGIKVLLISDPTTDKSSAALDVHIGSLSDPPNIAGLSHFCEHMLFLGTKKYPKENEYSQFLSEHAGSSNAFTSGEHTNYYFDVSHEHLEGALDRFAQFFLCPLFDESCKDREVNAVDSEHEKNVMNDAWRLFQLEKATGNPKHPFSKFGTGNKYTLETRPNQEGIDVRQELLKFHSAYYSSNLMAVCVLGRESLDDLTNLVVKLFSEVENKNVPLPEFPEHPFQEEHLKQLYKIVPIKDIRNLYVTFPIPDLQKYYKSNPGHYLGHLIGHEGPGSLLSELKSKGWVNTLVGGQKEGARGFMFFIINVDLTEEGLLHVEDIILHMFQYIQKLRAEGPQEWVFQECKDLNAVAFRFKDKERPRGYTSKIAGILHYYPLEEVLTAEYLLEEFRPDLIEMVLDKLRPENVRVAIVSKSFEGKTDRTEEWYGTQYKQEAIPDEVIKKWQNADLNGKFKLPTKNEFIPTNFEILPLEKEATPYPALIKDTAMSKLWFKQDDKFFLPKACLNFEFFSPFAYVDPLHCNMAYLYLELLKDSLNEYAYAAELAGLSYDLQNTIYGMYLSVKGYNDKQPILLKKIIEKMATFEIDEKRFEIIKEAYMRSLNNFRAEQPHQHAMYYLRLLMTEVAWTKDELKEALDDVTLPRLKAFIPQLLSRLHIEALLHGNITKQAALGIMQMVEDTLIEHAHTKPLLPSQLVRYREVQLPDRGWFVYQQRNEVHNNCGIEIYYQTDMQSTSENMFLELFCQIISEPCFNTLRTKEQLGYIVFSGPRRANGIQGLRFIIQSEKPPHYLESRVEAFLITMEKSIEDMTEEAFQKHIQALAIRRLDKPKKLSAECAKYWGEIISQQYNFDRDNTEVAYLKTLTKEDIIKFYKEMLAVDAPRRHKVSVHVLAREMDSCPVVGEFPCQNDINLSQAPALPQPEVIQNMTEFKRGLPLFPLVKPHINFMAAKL

HEK293 [2] = test: optical interference in Abeta FP readout, dose response, artefact control for IDE activator project, biochemical, fluorescence polarization (AID 588442); type: functional, cell-based; conditions: Homo sapiens
HEK293 [3] = test: HEK cell cytotoxicity by LDH release, dose response, cytotoxicity control for IDE activator project, fluorescence, HEK cells (AID 588440); type: functional, cell-based; conditions: Homo sapiens;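 note: cytotoxicity by LDH release measuring loss of membrane integrity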
Insulin-degrading enzyme [4] = biological target: T1, Insulin-degrading enzyme; test: activators of recombinant IDE enzyme, dose response, counter-screen for IDE activator project, biochemical, fluorescence polarization (AID 588681)
[5] = biological target: Protein kinase C delta type (Homo sapiens, UniProt Q05655); type: functional
[6] = biological target: Cyclin-dependent kinase 2 (Homo sapiens, UniProt P24941); type: functional;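 note: CDK2 measured as one member of a broad kinome profiling panel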
[7] = biological target: Protein kinase C zeta type (Homo sapiens, UniProt Q05513); type: functional;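 note: measured as one member of a broad kinase profiling panel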
[8] = biological target: Serine/threonine-protein kinase Chk2 (Homo sapiens, UniProt O96017); type: functional;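 note: CHEK2 entry within a kinome-wide screening panel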
[9] = biological target: Cyclin-dependent kinase 1 (Homo sapiens, UniProt P06493); type: functional;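 note: Kinome-wide panel profiling, with the target listed as panel member CDC2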
[10] = biological target: 5'-AMP-activated protein kinase catalytic subunit alpha-1 (Homo sapiens, UniProt Q13131); type: functional
[11] = biological target: Serine/threonine-protein kinase MRCK alpha (Homo sapiens, UniProt Q5VT25); type: functional
[12] = biological target: Serine/threonine-protein kinase PLK1 (Homo sapiens, UniProt P53350); type: functional;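 note: PLK1 measured as one member of a kinome-wide profiling panel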
[13] = biological target: Serine/threonine-protein kinase pim-1 (Homo sapiens, UniProt P11309); type: functional
[14] = biological target: Serine/threonine-protein kinase PLK3 (Homo sapiens, UniProt Q9H4B4); type: functional
[15] = biological target: Casein kinase II subunit alpha (Homo sapiens, UniProt P68400); type: functional
[16] = biological target: Protein kinase C gamma type (Homo sapiens, UniProt P05129); type: functional
[17] = biological target: RAC-gamma serine/threonine-protein kinase (Homo sapiens, UniProt Q9Y243); type: functional
Ephrin type-A receptor 2 = Ephrin type-A receptor 2 (Homo sapiens, UniProt P29317); type: functional;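 note: EPHA2 tested as one member of a kinome-wide kinase panel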
[18] = biological target: MAP kinase-activated protein kinase 2 (Homo sapiens, UniProt P49137); type: functional;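 note: measured as one member of a kinome-wide kinase panel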
[19] = biological target: Serine/threonine-protein kinase Chk1 (Homo sapiens, UniProt O14757); type: functional;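 note: measured as one member of a kinome-wide kinase profiling panel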
[20] = biological target: RAC-alpha serine/threonine-protein kinase (Homo sapiens, UniProt P31749); type: functional;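 note: AKT1 affinity measured as one member of a kinome-wide kinase profiling panel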

Serine/threonine-protein kinase MRCK alpha, sequence (Q5VT25 whole entry): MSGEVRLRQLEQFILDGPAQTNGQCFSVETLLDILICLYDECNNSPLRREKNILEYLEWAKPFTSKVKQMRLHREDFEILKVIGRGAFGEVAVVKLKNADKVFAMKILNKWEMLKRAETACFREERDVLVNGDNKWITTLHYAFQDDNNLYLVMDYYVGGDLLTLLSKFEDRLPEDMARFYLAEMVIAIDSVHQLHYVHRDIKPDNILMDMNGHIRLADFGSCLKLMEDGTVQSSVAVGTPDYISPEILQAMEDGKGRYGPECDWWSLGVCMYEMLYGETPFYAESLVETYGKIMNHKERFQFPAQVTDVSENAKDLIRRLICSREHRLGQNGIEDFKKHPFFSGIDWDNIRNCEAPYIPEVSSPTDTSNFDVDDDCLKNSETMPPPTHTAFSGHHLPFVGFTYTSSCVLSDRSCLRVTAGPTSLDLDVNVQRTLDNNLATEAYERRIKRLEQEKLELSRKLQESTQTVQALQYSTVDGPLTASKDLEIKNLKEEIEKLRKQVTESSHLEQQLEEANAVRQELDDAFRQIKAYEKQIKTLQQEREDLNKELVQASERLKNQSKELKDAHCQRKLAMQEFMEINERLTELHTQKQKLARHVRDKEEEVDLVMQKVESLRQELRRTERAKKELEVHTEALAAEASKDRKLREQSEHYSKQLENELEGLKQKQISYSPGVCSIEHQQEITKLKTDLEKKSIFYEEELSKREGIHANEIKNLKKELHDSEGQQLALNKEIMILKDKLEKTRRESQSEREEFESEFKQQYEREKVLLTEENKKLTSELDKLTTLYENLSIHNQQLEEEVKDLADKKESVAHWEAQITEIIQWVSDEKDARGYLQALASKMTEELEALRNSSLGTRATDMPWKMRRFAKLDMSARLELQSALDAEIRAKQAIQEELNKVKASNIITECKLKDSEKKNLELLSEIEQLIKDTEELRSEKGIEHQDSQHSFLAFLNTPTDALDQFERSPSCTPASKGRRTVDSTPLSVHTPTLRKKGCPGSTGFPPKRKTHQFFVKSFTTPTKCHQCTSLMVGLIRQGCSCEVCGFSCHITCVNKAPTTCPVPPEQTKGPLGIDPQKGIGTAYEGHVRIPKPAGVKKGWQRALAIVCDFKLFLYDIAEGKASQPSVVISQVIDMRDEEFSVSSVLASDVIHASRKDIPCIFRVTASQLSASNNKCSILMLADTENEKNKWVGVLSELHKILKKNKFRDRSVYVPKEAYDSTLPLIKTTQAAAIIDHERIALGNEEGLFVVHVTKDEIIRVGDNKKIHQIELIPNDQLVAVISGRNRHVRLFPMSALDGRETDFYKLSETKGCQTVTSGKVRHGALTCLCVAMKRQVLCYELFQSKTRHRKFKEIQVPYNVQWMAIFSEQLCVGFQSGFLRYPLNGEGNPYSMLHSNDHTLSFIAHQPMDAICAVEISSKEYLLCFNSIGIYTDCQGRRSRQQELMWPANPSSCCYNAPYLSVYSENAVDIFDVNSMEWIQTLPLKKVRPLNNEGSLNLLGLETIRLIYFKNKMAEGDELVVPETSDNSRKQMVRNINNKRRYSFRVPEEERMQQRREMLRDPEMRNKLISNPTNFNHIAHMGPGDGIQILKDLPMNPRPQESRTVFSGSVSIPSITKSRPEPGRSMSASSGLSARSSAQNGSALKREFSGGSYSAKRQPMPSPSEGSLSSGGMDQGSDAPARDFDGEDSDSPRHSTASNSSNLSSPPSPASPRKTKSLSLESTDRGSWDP
Protein kinase C zeta type, sequence (Q05513 whole entry): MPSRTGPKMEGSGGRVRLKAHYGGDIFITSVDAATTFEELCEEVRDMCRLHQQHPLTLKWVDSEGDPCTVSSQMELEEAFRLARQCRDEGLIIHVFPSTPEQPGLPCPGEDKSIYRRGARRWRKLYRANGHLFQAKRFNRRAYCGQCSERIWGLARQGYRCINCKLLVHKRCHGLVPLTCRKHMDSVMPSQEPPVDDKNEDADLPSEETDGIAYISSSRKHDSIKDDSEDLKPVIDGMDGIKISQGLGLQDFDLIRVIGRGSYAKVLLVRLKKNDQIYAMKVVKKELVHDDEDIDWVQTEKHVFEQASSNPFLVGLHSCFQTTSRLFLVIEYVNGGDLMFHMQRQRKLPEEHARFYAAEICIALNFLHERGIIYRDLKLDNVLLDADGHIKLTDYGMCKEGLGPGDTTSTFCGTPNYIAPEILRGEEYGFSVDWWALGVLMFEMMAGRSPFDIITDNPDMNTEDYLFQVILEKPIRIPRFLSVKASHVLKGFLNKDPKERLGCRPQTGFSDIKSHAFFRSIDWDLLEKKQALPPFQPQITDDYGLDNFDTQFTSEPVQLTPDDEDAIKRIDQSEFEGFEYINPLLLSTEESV
5'-AMP-activated protein kinase catalytic subunit alpha-1, sequence (Q13131 whole entry): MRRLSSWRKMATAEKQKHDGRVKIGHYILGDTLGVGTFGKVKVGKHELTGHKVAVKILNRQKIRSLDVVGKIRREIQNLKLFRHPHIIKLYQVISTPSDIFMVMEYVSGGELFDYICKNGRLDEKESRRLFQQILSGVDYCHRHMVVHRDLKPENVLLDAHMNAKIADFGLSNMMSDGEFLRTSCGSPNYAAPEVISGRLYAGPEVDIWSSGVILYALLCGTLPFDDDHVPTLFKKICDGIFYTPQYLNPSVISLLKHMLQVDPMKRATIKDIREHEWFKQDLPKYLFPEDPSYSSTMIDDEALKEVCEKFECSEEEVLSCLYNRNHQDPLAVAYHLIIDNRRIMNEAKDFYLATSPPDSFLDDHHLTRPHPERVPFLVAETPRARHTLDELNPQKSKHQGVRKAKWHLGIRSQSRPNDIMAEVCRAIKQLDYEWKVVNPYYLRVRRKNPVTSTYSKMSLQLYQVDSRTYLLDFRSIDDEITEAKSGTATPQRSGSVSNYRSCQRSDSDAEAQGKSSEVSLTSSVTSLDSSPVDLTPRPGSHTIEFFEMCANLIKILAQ
Serine/threonine-protein kinase PLK3, sequence (Q9H4B4 whole entry): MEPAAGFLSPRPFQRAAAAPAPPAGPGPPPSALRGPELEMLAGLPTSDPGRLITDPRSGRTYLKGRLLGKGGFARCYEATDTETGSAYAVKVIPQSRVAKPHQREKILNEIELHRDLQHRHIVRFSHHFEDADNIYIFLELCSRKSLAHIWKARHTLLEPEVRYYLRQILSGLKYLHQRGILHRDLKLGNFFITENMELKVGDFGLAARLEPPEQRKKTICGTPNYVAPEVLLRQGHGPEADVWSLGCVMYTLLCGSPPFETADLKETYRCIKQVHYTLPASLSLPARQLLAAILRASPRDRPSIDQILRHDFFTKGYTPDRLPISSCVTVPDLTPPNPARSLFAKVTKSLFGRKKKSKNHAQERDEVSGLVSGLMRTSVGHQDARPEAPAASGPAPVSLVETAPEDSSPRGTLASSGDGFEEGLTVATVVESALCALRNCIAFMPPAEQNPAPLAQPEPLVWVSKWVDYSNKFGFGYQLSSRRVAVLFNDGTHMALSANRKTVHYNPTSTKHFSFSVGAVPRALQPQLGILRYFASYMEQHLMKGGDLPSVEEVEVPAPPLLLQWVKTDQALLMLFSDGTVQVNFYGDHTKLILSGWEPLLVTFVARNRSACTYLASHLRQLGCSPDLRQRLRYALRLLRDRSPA
Ephrin type-A receptor 2, sequence (P29317 whole entry): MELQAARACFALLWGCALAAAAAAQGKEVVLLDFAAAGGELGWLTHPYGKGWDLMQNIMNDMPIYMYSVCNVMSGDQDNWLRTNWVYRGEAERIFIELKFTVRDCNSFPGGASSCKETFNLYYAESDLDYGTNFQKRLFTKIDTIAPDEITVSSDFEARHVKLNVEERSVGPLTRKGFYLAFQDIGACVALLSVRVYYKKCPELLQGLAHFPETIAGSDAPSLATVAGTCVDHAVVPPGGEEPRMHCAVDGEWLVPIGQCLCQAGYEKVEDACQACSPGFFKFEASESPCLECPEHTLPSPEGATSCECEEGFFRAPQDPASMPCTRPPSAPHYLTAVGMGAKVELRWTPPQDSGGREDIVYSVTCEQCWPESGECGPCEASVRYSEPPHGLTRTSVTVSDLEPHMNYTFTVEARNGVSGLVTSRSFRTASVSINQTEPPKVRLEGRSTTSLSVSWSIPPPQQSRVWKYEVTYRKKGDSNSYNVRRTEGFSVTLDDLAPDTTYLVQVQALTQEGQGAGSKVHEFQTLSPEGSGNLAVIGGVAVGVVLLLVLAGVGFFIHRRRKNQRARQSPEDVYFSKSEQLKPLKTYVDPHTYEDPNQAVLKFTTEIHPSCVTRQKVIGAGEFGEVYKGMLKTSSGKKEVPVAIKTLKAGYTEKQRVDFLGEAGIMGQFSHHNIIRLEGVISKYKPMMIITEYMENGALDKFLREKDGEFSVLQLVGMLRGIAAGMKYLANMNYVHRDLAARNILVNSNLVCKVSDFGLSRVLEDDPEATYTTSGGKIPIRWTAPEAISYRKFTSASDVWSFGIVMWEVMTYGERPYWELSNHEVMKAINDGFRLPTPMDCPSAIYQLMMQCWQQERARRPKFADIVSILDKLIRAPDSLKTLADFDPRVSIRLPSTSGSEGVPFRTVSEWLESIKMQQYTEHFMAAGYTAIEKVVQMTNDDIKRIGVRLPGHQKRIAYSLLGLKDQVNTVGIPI
Serine/threonine-protein kinase Chk1, sequence (O14757 whole entry): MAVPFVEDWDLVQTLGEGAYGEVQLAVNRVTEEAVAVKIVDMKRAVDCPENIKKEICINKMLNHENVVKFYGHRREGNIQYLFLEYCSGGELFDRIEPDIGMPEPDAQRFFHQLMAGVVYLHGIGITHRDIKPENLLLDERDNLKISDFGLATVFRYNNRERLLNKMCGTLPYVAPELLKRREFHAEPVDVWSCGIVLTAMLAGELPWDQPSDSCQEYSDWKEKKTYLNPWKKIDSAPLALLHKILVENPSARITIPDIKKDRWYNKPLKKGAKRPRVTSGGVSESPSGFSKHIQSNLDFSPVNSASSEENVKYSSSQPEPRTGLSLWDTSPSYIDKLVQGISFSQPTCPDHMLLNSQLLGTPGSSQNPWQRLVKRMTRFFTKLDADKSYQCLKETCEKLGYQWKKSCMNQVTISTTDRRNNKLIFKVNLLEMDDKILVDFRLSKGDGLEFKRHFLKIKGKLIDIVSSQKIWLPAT

c1ccc(C2CC3CC4(CCCC4)N2O3)cc1 (stereo not given)
inactive: EC50 (Insulin-degrading enzyme [1]) > 54.7 µM | EC50 (HEK293 [2]) > 55.9 µM | IC50 (HEK293 [3]) > 89.2 µM | EC50 (Insulin-degrading enzyme [4]) > 54.7 µM

CN(C)CCCN(C(=O)COc1ccc(Cl)cc1)c1nc2ccc(F)cc2s1
inactive: EC50 (Insulin-degrading enzyme [1]) > 54.7 µM | EC50 (HEK293 [2]) > 55.9 µM | IC50 (HEK293 [3]) > 29.7 µM | EC50 (Insulin-degrading enzyme [4]) > 54.7 µM

Cn1ncc2c1CCCC2=O
inactive: Ki [5] > 20 µM | Ki [6] > 20 µM | Ki [7] > 20 µM | Ki [8] > 25.1 µM | Ki [9] > 20 µM | Ki [10] > 25.1 µM | Ki [11] > 25.1 µM | Ki [13] > 25.1 µM | Ki [16] > 20 µM | Ki [17] > 25.1 µM | Ki (Ephrin type-A receptor 2) > 20 µM | Ki [18] > 20 µM | Ki [19] > 20 µM | Ki [20] > 20 µM
active: Ki [12] 10 µM | Ki [14] 2 µM | Ki [15] 15.8 µM
